Assay results as given in US6914045B2, “Glycopeptide antibiotics” (Wyeth Holdings Corporation, priority 2001, dated 2005).
Values after ≈ are worked out from the molar mass of the structure shown. One block for each compound: values may come before it.

How the values were obtained:
Enterococcus sp. = assay: in vitro antibacterial evaluation, MIC by broth dilution; assay type: cell-based; details: broth dilution, 18 hours at 35° C.
In short: (§1)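 MIC, the lowest antibiotic concentration preventing growth, was read across 64-0.06 μg/mL with 5×10^5 CFU/mL inoculum. Method followed NCCLS M7-A2 broth dilution using Mueller-Hinton II; Gram-positive strains covered recent methicillin-, penicillin- and/or vancomycin-resistant clinical isolates.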

Staphylococcus sp. = assay: as above; assay type: cell-based; details: broth dilution, 18 hours at 35° C.; for MIC Staphylococcus aureus-SMITH (GC 4543): strain GC 4543; for MIC Staphylococcus haemolyticus (GC 4546): strain GC 4546
In short: as §1

Streptococcus sp. = assay: as above; assay type: cell-based; details: broth dilution, 18 hours at 35° C.
In short: as §1

[1] = anatomic pathology (histopathology of heart and kidney) in mice; assay type: in vivo; details: CD-1 mice, 20 mg/kg intravenously daily for 9 days, necropsy day 10, microscopic histopathology
Experimental: Samples of tissues from necropsied mice were formalin-fixed, paraffin-embedded, sectioned, stained with hematoxylin and eosin, and examined microscopically. Histopathologic findings were recorded. These findings were subjectively graded on a scale corresponding to slight, mild, moderate, marked and severe as compared to untreated controls.

Escherichia coli = assay: in vitro antibacterial evaluation, MIC by broth dilution; assay type: cell-based; details: 18 hours at 35° C.
In short: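 MIC is the lowest antibiotic concentration (tested 64-0.06 μg/mL) preventing growth of a 5×10^5 CFU/mL inoculum. Determined by broth dilution in Mueller-Hinton II medium following NCCLS standard M7-A2.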

MIC Enterococcus avium (GC 4558) (Enterococcus sp.; Enterococcus avium (GC 4558)): 128 µg/mL (≈ 93.7 µM) | MIC Enterococcus faecalis (ATCC 29212) (Enterococcus sp.; Enterococcus faecalis (ATCC 29212)): >128 µg/mL | MIC Enterococcus faecalis (GC 4552) (Enterococcus sp.; Enterococcus faecalis (GC 4552)): >128 µg/mL | MIC Enterococcus faecalis (GC 4553) (Enterococcus sp.; Enterococcus faecalis (GC 4553)): >128 µg/mL | MIC Enterococcus faecalis (GC 4554) (Enterococcus sp.; Enterococcus faecalis (GC 4554)): >128 µg/mL | MIC Enterococcus faecalis (GC 6189) (Enterococcus sp.; Enterococcus faecalis (GC 6189)): >128 µg/mL | MIC Enterococcus faecium (GC 2243) (Enterococcus sp.; Enterococcus faecium (GC 2243)): >128 µg/mL | MIC Enterococcus faecium (GC 4556) (Enterococcus sp.; Enterococcus faecium (GC 4556)): >128 µg/mL | MIC Enterococcus faecium (GC 4557) (Enterococcus sp.; Enterococcus faecium (GC 4557)): >128 µg/mL | MIC Enterococcus avium (GC 4558) (Enterococcus sp.): 128 µg/mL (≈ 93.7 µM) | MIC Enterococcus faecalis (ATCC 29212) (Enterococcus sp.): >128 µg/mL | MIC Enterococcus faecalis (GC 2242) (Enterococcus sp.): >128 µg/mL | MIC Enterococcus faecalis (GC 2691) (Enterococcus sp.): >128 µg/mL | MIC Enterococcus faecalis (GC 3059) (Enterococcus sp.): >128 µg/mL | MIC Enterococcus faecalis (GC 4552) (Enterococcus sp.): >128 µg/mL | MIC Enterococcus faecalis (GC 4553) (Enterococcus sp.): >128 µg/mL | MIC Enterococcus faecalis (GC 4554) (Enterococcus sp.): >128 µg/mL | MIC Enterococcus faecalis (GC 6189) (Enterococcus sp.): >128 µg/mL | MIC Enterococcus faecium (GC 2243) (Enterococcus sp.): >128 µg/mL | MIC Enterococcus faecium (GC 4556) (Enterococcus sp.): >128 µg/mL | MIC Enterococcus faecium (GC 4557) (Enterococcus sp.): >128 µg/mL | MIC Enterococcus faecalis (GC 2242) (Enterococcus sp.; strain GC 2242): >128 µg/mL | MIC Enterococcus faecalis (GC 2691) (Enterococcus sp.; strain GC 2691): >128 µg/mL | MIC Enterococcus faecalis (GC 3059) (Enterococcus sp.; strain GC 3059): >128 µg/mL | MIC Staphylococcus aureus (ATCC 29213) (Staphylococcus sp.; strain ATCC 29213): >128 µg/mL | MIC Staphylococcus aureus (GC 1131) (Staphylococcus sp.; strain GC 1131): >128 µg/mL | MIC Staphylococcus aureus (GC 3051) (Staphylococcus sp.; strain GC 3051): >128 µg/mL | MIC Staphylococcus aureus (GC 3053) (Staphylococcus sp.; strain GC 3053): >128 µg/mL | MIC Staphylococcus aureus (GC 4541) (Staphylococcus sp.; strain GC 4541): >128 µg/mL | MIC Staphylococcus aureus (GC 4542) (Staphylococcus sp.; strain GC 4542): >128 µg/mL | MIC Staphylococcus aureus-SMITH (GC 4543) (Staphylococcus sp.): >128 µg/mL | MIC Staphylococcus aureus (GC 4544) (Staphylococcus sp.; strain GC 4544): >128 µg/mL | MIC Staphylococcus aureus (GC 4545) (Staphylococcus sp.; strain GC 4545): >128 µg/mL | MIC Coagulase Negative Staphylococcus (GC 4547) (Staphylococcus sp.; strain GC 4547): >128 µg/mL | MIC Coagulase Negative Staphylococcus (GC 4548) (Staphylococcus sp.; strain GC 4548): >128 µg/mL | MIC Coagulase Negative Staphylococcus (GC 4549) (Staphylococcus sp.; strain GC 4549): >128 µg/mL | MIC Coagulase Negative Staphylococcus (GC 4551) (Staphylococcus sp.; strain GC 4551): >128 µg/mL | MIC Coagulase Negative Staphylococcus (GC 6257) (Staphylococcus sp.; strain GC 6257): >128 µg/mL | MIC Streptococcus agalactiae (GC 4564) (Streptococcus sp.): 128 µg/mL (≈ 93.7 µM) | MIC Streptococcus pneumoniae (ATCC 6301) (Streptococcus sp.): >128 µg/mL | MIC Streptococcus pneumoniae (GC 1894) (Streptococcus sp.): 128 µg/mL (≈ 93.7 µM) | MIC Streptococcus pneumoniae (GC 4565) (Streptococcus sp.): >128 µg/mL | MIC Streptococcus pyogenes (GC 4563) (Streptococcus sp.): >128 µg/mL | MIC Streptococcus pneumoniae (ATCC 6301) (Streptococcus sp.; strain ATCC 6301): >128 µg/mL | MIC Streptococcus pneumoniae (GC 1894) (Streptococcus sp.; strain GC 1894): 128 µg/mL (≈ 93.7 µM) | MIC Streptococcus pyogenes (GC 4563) (Streptococcus sp.; strain GC 4563): >128 µg/mL | MIC Streptococcus agalactiae (GC 4564) (Streptococcus sp.; strain GC 4564): 128 µg/mL (≈ 93.7 µM) | MIC Streptococcus pneumoniae (GC 4565) (Streptococcus sp.; strain GC 4565): >128 µg/mL | MIC Escherichia coli (ATCC 25922) (Escherichia coli): >128 µg/mL | MIC Escherichia coli (GC 4559) (Escherichia coli): >128 µg/mL | MIC Escherichia coli (GC 4560) (Escherichia coli): >128 µg/mL
SMILES: CN=C1N(C)CC(C(O)C2NC(=O)C(Cc3ccc(OC4OC(CO)C(OC5OC(CO)C(O)C(O)C5O)C(O)C4O)cc3)NC(=O)C(C(C)c3ccccc3)NC(=O)CNC(=O)C(CO)NC(=O)C(C(O)C3CN(C)C(=NC)N3C3OC(CO)C(O)C(O)C3O)NC2=O)N1C (stereo not drawn) [Example 64, Cyclo[glycyl-β-methylphenylalanyl-O-(4-O-hexopyranosylhexopyranosyl)tyrosyl-3-(1,3-dimethyl-2-(methylimino)imidazolidin-4-yl)seryl-3-[3-hexopyranosyl-1-methyl-2-(methylimino)imidazolidin-4-yl]-serylseryl]]
MIC Staphylococcus haemolyticus (GC 4546) (Staphylococcus sp.): >128 µg/mL | Anatomical Pathology (Day 10), Heart [1]: 0 | Anatomical Pathology (Day 10), Kidney [1]: 0

SMILES: CC(c1ccccc1)C1NC(=O)CNC(=O)C(CO)NC(=O)C(C(O)C2CN(Cc3ccc(-c4ccccc4)cc3)C(=N)N2C2OC(CO)C(O)C(O)C2O)NC(=O)C(C(O)C2CNC(=NCc3ccc(-c4ccccc4)cc3)N2Cc2ccc(-c3ccccc3)cc2)NC(=O)C(Cc2ccc(OC3OC(CO)C(OC4OC(CO)C(O)C(O)C4O)C(O)C3O)cc2)NC1=O (stereo not drawn) [Example 66, Cyclo[glycyl-β-methylphenylalanyl-O-(4-O-hexopyranosylhexopyranosyl)tyrosl-3-[3-(4-phenylbenzyl)-2-(4-phenylbenzyl)iminolimidazolidin-4-yl]seryl-3-[3-hexopyranosyl-2-imino-1-(4-phenylbenzyl)-imidazolidin-4-yl]serylseryl]]
MIC Enterococcus avium (GC 4558) (Enterococcus sp.): 4 µg/mL (≈ 2.23 µM) | MIC Enterococcus faecalis (ATCC 29212) (Enterococcus sp.): 16 µg/mL (≈ 8.92 µM) | MIC Enterococcus faecalis (GC 2242) (Enterococcus sp.): 16 µg/mL (≈ 8.92 µM) | MIC Enterococcus faecalis (GC 2691) (Enterococcus sp.): 32 µg/mL (≈ 17.8 µM) | MIC Enterococcus faecalis (GC 3059) (Enterococcus sp.): 32 µg/mL (≈ 17.8 µM) | MIC Enterococcus faecalis (GC 4552) (Enterococcus sp.): 32 µg/mL (≈ 17.8 µM) | MIC Enterococcus faecalis (GC 4553) (Enterococcus sp.): 8 µg/mL (≈ 4.46 µM) | MIC Enterococcus faecalis (GC 4554) (Enterococcus sp.): 64 µg/mL (≈ 35.7 µM) | MIC Enterococcus faecalis (GC 6189) (Enterococcus sp.): 32 µg/mL (≈ 17.8 µM) | MIC Enterococcus faecium (GC 2243) (Enterococcus sp.): 8 µg/mL (≈ 4.46 µM) | MIC Enterococcus faecium (GC 4556) (Enterococcus sp.): 32 µg/mL (≈ 17.8 µM) | MIC Enterococcus faecium (GC 4557) (Enterococcus sp.): 4 µg/mL (≈ 2.23 µM) | MIC Enterococcus faecalis (GC 2242) (Enterococcus sp.; strain GC 2242): 16 µg/mL (≈ 8.92 µM) | MIC Enterococcus faecalis (GC 2691) (Enterococcus sp.; strain GC 2691): 32 µg/mL (≈ 17.8 µM) | MIC Enterococcus faecalis (GC 3059) (Enterococcus sp.; strain GC 3059): 32 µg/mL (≈ 17.8 µM) | MIC Staphylococcus aureus-SMITH (GC 4543) (Staphylococcus sp.): 8 µg/mL (≈ 4.46 µM) | MIC Staphylococcus haemolyticus (GC 4546) (Staphylococcus sp.): 4 µg/mL (≈ 2.23 µM) | MIC Streptococcus agalactiae (GC 4564) (Streptococcus sp.): 32 µg/mL (≈ 17.8 µM) | MIC Streptococcus pneumoniae (ATCC 6301) (Streptococcus sp.): 32 µg/mL (≈ 17.8 µM) | MIC Streptococcus pneumoniae (GC 1894) (Streptococcus sp.): 32 µg/mL (≈ 17.8 µM) | MIC Streptococcus pneumoniae (GC 4565) (Streptococcus sp.): 64 µg/mL (≈ 35.7 µM) | MIC Streptococcus pyogenes (GC 4563) (Streptococcus sp.): 16 µg/mL (≈ 8.92 µM) | MIC Streptococcus pneumoniae (ATCC 6301) (Streptococcus sp.; strain ATCC 6301): 32 µg/mL (≈ 17.8 µM) | MIC Streptococcus pneumoniae (GC 1894) (Streptococcus sp.; strain GC 1894): 32 µg/mL (≈ 17.8 µM) | MIC Streptococcus pyogenes (GC 4563) (Streptococcus sp.; strain GC 4563): 16 µg/mL (≈ 8.92 µM) | MIC Streptococcus agalactiae (GC 4564) (Streptococcus sp.; strain GC 4564): 32 µg/mL (≈ 17.8 µM) | MIC Streptococcus pneumoniae (GC 4565) (Streptococcus sp.; strain GC 4565): 64 µg/mL (≈ 35.7 µM) | Anatomical Pathology (Day 10), Heart [1]: 0 | Anatomical Pathology (Day 10), Kidney [1]: 0 | MIC Escherichia coli (ATCC 25922) (Escherichia coli): >128 µg/mL | MIC Escherichia coli (GC 4559) (Escherichia coli): >128 µg/mL | MIC Escherichia coli (GC 4560) (Escherichia coli): 4 µg/mL (≈ 2.23 µM)
